What follows are compounds tested against T1, small-conductance Ca2+-activated K+ channels (SK channels, subtype 2) (Homo sapiens, UniProt Q9H2S1) (assay: whole-cell patch-clamp of ionic current through SK2 channels in HEK293 cells (SC100)). Details: concentration that increases the basal current by 100%; HEK293 cells expressing SK2 channels.
T1 construct: expressed in transfected cells; host or cells: HEK293
Assay type: cell-based
Method in brief: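 SC100, the concentration doubling basal current (a 100% increase), was taken from SK2 currents recorded by whole-cell patch-clamp in SK2-expressing HEK293 cells.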

SMILES | SC100
CC(C)(C)C(=O)N1CC(Oc2cc(NC3CCC(F)(F)CC3)nc(-c3nc(C(F)F)cs3)n2)C1 [Compound 329, 1-(3-((6-((4,4-difluorocyclohexyl)amino)-2-(4-(difluoromethyl)thiazol-2-yl)pyrimidin-4-yl)oxy)azetidin-1-yl)-2,2-dimethylpropan-1-one] | ++ (++ means 200 nM-1000 nM)
COC(=O)N1CCC1COc1cc(NC2CCC(F)(F)CC2)nc(-n2ccc(C(F)F)n2)n1 (stereo not drawn) [Compound 314, methyl 2-(((6-((4,4-difluorocyclohexyl)amino)-2-(3-(difluoromethyl)-1H-pyrazol-1-yl)pyrimidin-4-yl)oxy)methyl)azetidine-1-carboxylate] | + (+ means >1 uM)
Cc1cc(C)n(-c2nc(NC3CCC(F)(F)CC3)cc(N3CCNC(C(N)=O)C3)n2)n1 (stereo not drawn) [Compound 100, 4-(6-((4,4-difluorocyclohexyl)amino)-2-(3,5-dimethyl-1H-pyrazol-1-yl)pyrimidin-4-yl)piperazine-2-carboxamide] | + (+ means >1 uM)
CC(C)OC(=O)N1CC(Oc2cc(NC3CCC(F)(F)CC3)nc(-n3ccc(CF)n3)n2)C1 [Compound 296, isopropyl3-((6-((4,4-difluorocyclohexyl)amino)-2-(3-(fluoromethyl)-1H-pyrazol-1-yl)pyrimidin-4-yl)oxy)azetidine-1-carboxylate] | ++ (++ means 200 nM-1000 nM)
Cc1ccn(-c2nc(NCC(C)(C)C)cc(NC3CCC(F)(F)CC3)n2)n1 [Compound 146, N4-(4,4-difluorocyclohexyl)-2-(3-methyl-1H-pyrazol-1-yl)-N6-neopentylpyrimidine-4,6-diamine] | ++ (++ means 200 nM-1000 nM)
CCN1CCCCC(Nc2cc(NC3CCC(F)(F)CC3)nc(-n3ccc(C)n3)n2)C1 (stereo not drawn) [Compound 158, N4-(4,4-difluorocyclohexyl)-N6-(1-ethylazepan-3-yl)-2-(3-methyl-1H-pyrazol-1-yl)pyrimidine-4,6-diamine] | ++ (++ means 200 nM-1000 nM)
Cc1cc(NC2CCC(C(F)(F)F)CC2)nc(-n2ccc(C)n2)n1 (stereo not drawn) [Compound 144, 6-methyl-2-(3-methyl-1H-pyrazol-1-yl)-N-(4-(trifluoromethyl)cyclohexyl)pyrimidin-4-amine] | + (+ means >1 uM)
Cc1cc(C)n(-c2nc(NC3CCC(F)(F)CC3)cc(C(F)F)n2)n1 [Compound 142, N-(4,4-difluorocyclohexyl)-6-(difluoromethyl)-2-(3,5-dimethyl-1H-pyrazol-1-yl)pyrimidin-4-amine] | + (+ means >1 uM)
FC1(F)CCC(Nc2cc(N3CCOCC3)nc(-c3nc(C(F)(F)F)cs3)n2)CC1 [Compound 332, N-(4,4-difluorocyclohexyl)-6-morpholino-2-(4-(trifluoromethyl)thiazol-2-yl)pyrimidin-4-amine] | ++ (++ means 200 nM-1000 nM)
Cc1cc(NC2CCC(F)(F)CC2)nc(-n2ccc(C(C)(C)O)n2)n1 [Compound 215, 2-(1-(4-((4,4-difluorocyclohexyl)amino)-6-methylpyrimidin-2-yl)-1H-pyrazol-3-yl)propan-2-ol] | + (+ means >1 uM)
Cc1cc(C)n(-c2nc(NC3CCC(F)(F)C3)cc(C(F)(F)F)n2)n1 (stereo not drawn) [Compound 167, N-(3,3-difluorocyclopentyl)-2-(3,5-dimethyl-1H-pyrazol-1-yl)-6-(trifluoromethyl)pyrimidin-4-amine] | + (+ means >1 uM)

Same assay, conditions: whole-cell patch-clamp, HEK293 cells expressing SK2 channels; concentration that increases the basal current by 100%

SMILES | SC100 (μM)
COC(=O)NCCOc1cc(NC2CCC(F)(F)CC2)nc(-c2nc(C)cs2)n1 [IN11039-009-P1] | ++ (++ means 200 nM-1000 nM)
CC(=O)c1ccn(-c2nc(NC3CCC(F)(F)CC3)cc(N3CCOCC3)n2)n1 [IN11243-031-P1] | + (+ means >1 uM)
COc1nc(-c2nc(C)cs2)nc(NC2CCC(F)(F)CC2)c1OC [IN11125-010-P1] | ++ (++ means 200 nM-1000 nM)
Cc1noc(-c2cc(N3CCOCC3)cc(NC3CCC(F)(F)CC3)n2)n1 [NSSy5957] | + (+ means >1 uM)
COC(=O)N1CCC(c2cc(NC3CCC(F)(F)CC3)nc(-n3ccc(C)n3)n2)CC1 [NSSy6982] | +++ (+++ means <200 nM)
Cc1cc(C)n(-c2nc(NC3CCC(F)CC3)cc(N3CCOCC3)n2)n1 (stereo not drawn) [IN10963-049-P1] | ++ (++ means 200 nM-1000 nM)
Cc1ccn(-c2cc(C(C)O)nc(NC3CCC(F)(F)CC3)n2)n1 (stereo not drawn) [NSSy6650] | + (+ means >1 uM)
COc1cc(NC2CCSCC2)nc(-c2nc(C)cs2)n1 [IN11079-072-P1] | + (+ means >1 uM)
OC(c1cc(NC2CCC(F)(F)CC2)nc(-n2cc(F)cn2)c1)c1ncco1 (stereo not drawn) [NSSy6435] | + (+ means >1 uM)
Cc1ccn(-c2cc([C@H](O)c3ncco3)cc(NC3CCC(F)(F)CC3)n2)n1 [NSSy6416] | ++ (++ means 200 nM-1000 nM)
Cc1csc(-c2nc(NC3CCC(F)(F)CC3)cc(OC(C)C)n2)n1 [IN11055-016-P1] | + (+ means >1 uM)
COc1cnc(-n2nc(C)c(F)c2C)nc1NC1CCC(F)(F)CC1 [NSSy7042] | + (+ means >1 uM)
Cc1ccn(-c2nc(NC3CCC(F)(F)CC3)cc(N3CC4(COC4)C3)n2)n1 [NSSy5631] | ++ (++ means 200 nM-1000 nM)
Cc1ccn(-c2cc(N3CCOCC3)cc(NC3CC=CCC3)n2)n1 (stereo not drawn) [NSSy5759, N-(cyclohex-3-en-1-yl)-6-(3-methyl-1H-pyrazol-1-yl)-4-morpholino pyridin-2-amine] | ++ (++ means 200 nM-1000 nM)
Cc1cc(CN2CCC(F)(F)CC2)cc(-c2nc(C)cs2)c1 [NSSy6044, 2-(3-((4,4-difluoropiperidin-1-yl)methyl)-5-methylphenyl)-4-methyl thiazole] | + (+ means >1 uM)
FC1(F)CCC(Nc2cc(C3CC3)nc(-n3ccc(C4CC4)n3)n2)CC1 [IN11166-036-P1, 6-cyclopropyl-2-(3-cyclopropyl-1H-pyrazol-1-yl)-N-(4,4-difluorocyclohexyl)pyrimidin-4-amine] | ++ (++ means 200 nM-1000 nM)
Cc1csc(-c2cc(COC(N)=O)cc(NC3CCC(F)(F)CC3)n2)n1 [IN11133-061-P1, (2-((4,4-difluorocyclohexyl)amino)-6-(4-methylthiazol-2-yl)pyridin-4-yl)methyl carbamate] | +++ (+++ means <200 nM)
COc1cc(NC2CCC(F)(F)CC2)nc(-c2nc(C3CC3)cs2)n1 [IN11147-054-P1, 2-(4-cyclopropylthiazol-2-yl)-N-(4,4-difluorocyclohexyl)-6-methoxypyrimidin-4-amine] | ++ (++ means 200 nM-1000 nM)
Cc1cc(C)n(-c2cc(NC3CCC(F)(F)CC3)nc(N3CCOCC3)c2)n1 [IN10991-067-P1, N-(4,4-difluorocyclohexyl)-4-(3,5-dimethyl-1H-pyrazol-1-yl)-6-morpholinopyridin-2-amine] | + (+ means >1 uM)

SMILES | SC100 (μM)
Cc1ccn(-c2cc(COC3CCCNC3)cc(NC3CCC(F)(F)CC3)n2)n1 (stereo not drawn) [IN11039-019-P1, N-(4,4-difluorocyclohexyl)-6-(3-methyl-1H-pyrazol-1-yl)-4-((piperidin-3-yloxy)methyl)pyridin-2-amine] | +++ (+++ means <200 nM)
Cc1csc(-c2nc(NC3CCC(F)(F)CC3)cc(C(O)c3ccccc3)n2)n1 (stereo not drawn) [IN10971-033-P1, (6-((4,4-difluorocyclohexyl)amino)-2-(4-methylthiazol-2-yl)pyrimidin-4-yl) (phenyl) methanol] | + (+ means >1 uM)
C=Cc1ccn(-c2nc(C)cc(NC3CCC(F)(F)CC3)n2)n1 [IN11250-031-P1] | + (+ means >1 uM)
Cc1csc(-c2ncc(O)c(NC3CCC(F)(F)CC3)n2)n1 [IN11125-095-P1, 4-((4,4-difluorocyclohexyl)amino)-2-(4-methylthiazol-2-yl)pyrimidin-5-ol] | + (+ means >1 uM)
Cc1csc(-c2ncc(CO)c(NC3CCC(F)(F)CC3)n2)n1 [IN11238-040-P1, (4-((4,4-difluorocyclohexyl)amino)-2-(4-methylthiazol-2-yl)pyrimidin-5-yl) methanol] | + (+ means >1 uM)
Cc1csc(-c2nccc(NC3CCC(F)(F)CC3)n2)n1 [NSSy6056, N-(4,4-difluorocyclohexyl)-2-(4-methylthiazol-2-yl)pyrimidin-4-amine] | ++ (++ means 200 nM-1000 nM)
COc1cc(NC2CCC(F)(F)C2)nc(-c2nc(C)cs2)n1 (stereo not drawn) [IN11125-028-P1] | + (+ means >1 uM)
Cc1ccn(-c2nc(NC3CCC(F)(F)CC3)cc([S+](C)[O-])n2)n1 (stereo not drawn) [IN11059-069-P1] | ++ (++ means 200 nM-1000 nM)
COC(=O)N1CC(Oc2ccnc(-c3nc(C)cs3)n2)C1 [NSSy6057] | + (+ means >1 uM)
FCc1csc(-c2nc(NC3CCC(F)(F)CC3)cc(N3CC4(COC4)C3)n2)n1 [NSSy5715, N-(4,4-difluorocyclohexyl)-2-(4-(fluoromethyl)thiazol-2-yl)-6-(2-oxa-6-azaspiro[3.3]heptan-6-yl)pyrimidin-4-amine] | ++ (++ means 200 nM-1000 nM)
COCc1cc(NC2CCC(F)(F)CC2)nc(-n2ccc(C)n2)c1 [NSSy5860] | ++ (++ means 200 nM-1000 nM)
Cc1ccn(-c2cc(COc3ncccc3C(C)(C)O)cc(NC3CCC(F)(F)CC3)n2)n1 [IN11039-069-P1] | +++ (+++ means <200 nM)
Cc1cc(-c2nc(C)cs2)nc(NC2CCC(F)(F)CC2)n1 [NSSy6590] | ++ (++ means 200 nM-1000 nM)
CC(=O)N1CCC(c2cc(NC3CCC(F)(F)CC3)nc(-n3ccc(C)n3)n2)CC1 [NSSy6369] | ++ (++ means 200 nM-1000 nM)
Cc1ccn(-c2cc(C(O)c3ncco3)cc(NC3CCC(F)(F)CC3)n2)n1 (stereo not drawn) [NSSy6395] | ++ (++ means 200 nM-1000 nM)
Cc1csc(-c2cc(N3CCOCC3)cc(NC3CCC(F)CC3)n2)n1 (stereo not drawn) [NSSy5688] | ++ (++ means 200 nM-1000 nM)
Cc1cc(C)n(-c2nc(C(C)O)cc(N(C)C3CCCCC3)n2)n1 (stereo not drawn) [IN10973-004-P1] | + (+ means >1 uM)
Cc1ccnn1-c1cc(N2CC3(COC3)C2)nc(NC2CCC(F)(F)CC2)n1 [NSSy6523] | + (+ means >1 uM)

Reference: patent US10774064B2 (Cadent Therapeutics, Inc., priority 2016, dated 2020)
